Experimental data: patent publication US9150592B2, “Heterocyclic nuclear hormone receptor modulators” (AbbVie Inc., priority 2012, dated 2015)

Target: T1, Glucocorticoid Receptor (GR) (Homo sapiens, UniProt P04150)
T1 construct: purchased Invitrogen P2893
T1 sequence (P04150 1-777): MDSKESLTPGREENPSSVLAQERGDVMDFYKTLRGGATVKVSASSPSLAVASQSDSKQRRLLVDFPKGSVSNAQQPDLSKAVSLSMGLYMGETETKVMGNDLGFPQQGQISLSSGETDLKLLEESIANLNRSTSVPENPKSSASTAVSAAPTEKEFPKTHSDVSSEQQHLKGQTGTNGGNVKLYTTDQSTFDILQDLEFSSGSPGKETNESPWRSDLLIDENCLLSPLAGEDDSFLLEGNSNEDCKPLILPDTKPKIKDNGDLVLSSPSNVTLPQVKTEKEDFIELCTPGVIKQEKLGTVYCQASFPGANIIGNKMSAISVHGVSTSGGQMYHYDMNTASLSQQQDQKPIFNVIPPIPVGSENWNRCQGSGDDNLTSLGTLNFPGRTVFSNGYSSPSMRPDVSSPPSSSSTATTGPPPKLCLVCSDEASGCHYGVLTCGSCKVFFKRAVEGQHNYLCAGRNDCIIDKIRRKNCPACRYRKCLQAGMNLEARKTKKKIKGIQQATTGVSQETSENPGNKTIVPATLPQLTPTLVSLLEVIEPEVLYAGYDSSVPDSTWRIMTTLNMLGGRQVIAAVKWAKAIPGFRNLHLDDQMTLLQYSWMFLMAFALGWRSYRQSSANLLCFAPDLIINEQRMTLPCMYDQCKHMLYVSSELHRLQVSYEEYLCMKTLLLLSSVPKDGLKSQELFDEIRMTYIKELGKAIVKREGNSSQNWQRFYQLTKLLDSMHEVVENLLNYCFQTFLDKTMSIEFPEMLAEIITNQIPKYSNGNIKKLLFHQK
Test: GR Fluorescence Polarization Assay (PolarScreen Glucocorticoid Receptor Competitor Assay, Red)
Conditions: IC50 class ranges, read-out: GR binding
Procedure: GR Fluorescence Polarization Assay
Fluorescence polarization assays were carried out using the PolarScreen™ Glucocorticoid Receptor Competitor Assay, Red from Invitrogen (P2893). The assay buffer was prepared according to the manufacturer's protocol and used to dilute the fluorescent glucocorticoid and GR. Compounds were prepared and serial diluted 1:4 in DMSO. Compound, fluorescent glucocorticoid and GR were added in a final volume of 20 μL and incubated overnight at 4° C. Fluorescent polarization was measured on the PerkinElmer Envision®.

Row | IC50 | Compound
1 | 1000 to 10000 nM | CCn1nc(-c2ccccn2)c2c1N[C@@H](C)CS[C@@H]2c1ccc(C#CCN(C)C)cc1C (single isomer, unassigned) [M.64, 3-(4-(1-ethyl-7-methyl-3-(pyridin-2-yl)-4,6,7,8-tetrahydro-1H-pyrazolo[3,4-e][1,4]thiazepin-4-yl)-3-methylphenyl)-N,N-dimethylprop-2-yn-1-amine]
2 | 100 to 1000 nM | Cc1cc(C#CCO)ccc1[C@H]1SC[C@@H](C)Nc2c1c(-c1ccccn1)nn2C (single isomer, unassigned) [M.69, 3-(4-(1,7-dimethyl-3-(pyridin-2-yl)-4,6,7,8-tetrahydro-1H-pyrazolo[3,4-e][1,4]thiazepin-4-yl)-3-methylphenyl)prop-2-yn-1-ol]
3 | 100 to 1000 nM | CNC(=O)c1ccc(C2SCCNc3c2c(-c2ccccn2)nn3C)c(Cl)c1 (stereo not shown) [I.2]
4 | 1000 to 10000 nM | CNC(=O)c1ccc(-c2nn(C)c3c2C(c2ccc(Cl)cc2Cl)SCCN3)nc1 (stereo not shown) [I.3]
5 | 1000 to 10000 nM | Cn1nc(-c2ccc(C(N)=O)cn2)c2c1NCCSC2c1ccc(Cl)cc1Cl (stereo not shown) [I.5]
6 | 100 to 1000 nM | Cc1cc(Br)ccc1[C@H]1SC[C@@H](C)Nc2c1c(-c1nnco1)nn2C [M.63, 2-(4-(4-bromo-2-methylphenyl)-1,7-dimethyl-4,6,7,8-tetrahydro-1H-pyrazolo[3,4-e][1,4]thiazepin-3-yl)-1,3,4-oxadiazole]
7 | 1000 to 10000 nM | Cc1cc(C(=O)Nc2cccnc2C)ccc1C1CCC(=O)Nc2c1c(C)nn2C (stereo not shown) [O.1, 4-(1,3-Dimethyl-7-oxo-1,4,5,6,7,8-hexahydropyrazolo[3,4-b]azepin-4-yl)-3-methyl-N-(2-methylpyridin-3-yl)benzamide]
8 | 100 to 1000 nM | CCn1nc(-c2ccccn2)c2c1N[C@@H](C)CS[C@H]2c1ccc(CCC(C)(C)N)cc1C [Q.1]
9 | 100 to 1000 nM | CCn1nc(-c2ccccn2)c2c1NCCSC2c1ccc(C(=O)Nc2nnn[nH]2)cc1C (stereo not shown) [S.6]
10 | 100 to 1000 nM | CCn1nc(-c2ccccn2)c2c1NCCSC2c1ccc(C(=O)Nc2onc(C)c2C#N)cc1C (stereo not shown) [S.7]
11 | 1000 to 10000 nM | Cn1nc(-c2ccccn2)c2c1NCCSC2c1ccc(-c2cncc(S(C)(=O)=O)c2)cc1Cl (stereo not shown) [U.1, 4-(2-Chloro-4-(5-(methylsulfonyl)pyridin-3-yl)phenyl)-1-methyl-3-(pyridin-2-yl)-4,6,7,8-tetrahydro-1H-pyrazolo[3,4-e][1,4]thiazepine tris(trifluoroacetate)]
12 | 1000 to 10000 nM | Cn1nc(-c2ccccn2)c2c1NCCSC2c1ccc(-c2cncnc2)cc1Cl (stereo not shown) [U.2]
13 | 1000 to 10000 nM | Cn1nc(-c2ccccn2)c2c1NCCSC2c1ccc(-c2ccnnc2)cc1Cl (stereo not shown) [U.3]
14 | 100 to 1000 nM | Cn1nc(-c2ccccn2)c2c1NCCSC2c1ccc(-c2cncc(C#N)c2)cc1Cl (stereo not shown) [U.4]
15 | 1000 to 10000 nM | Cn1nc(-c2ccccn2)c2c1NCCSC2c1ccc(-c2cnn(CCN3CCOCC3)c2)cc1Cl (stereo not shown) [U.5]
16 | 100 to 1000 nM | Cn1nc(-c2ccccn2)c2c1NCCSC2c1ccc(-c2cnn(C3CCCCO3)c2)cc1Cl (stereo not shown) [U.6]
17 | 1000 to 10000 nM | Cn1nc(-c2ccccn2)c2c1NCCSC2c1ccc(-c2cncc(C(N)=O)c2)cc1Cl (stereo not shown) [U.7]
18 | 1000 to 10000 nM | CNC(=O)c1cncc(-c2ccc(C3SCCNc4c3c(-c3ccccn3)nn4C)c(Cl)c2)c1 (stereo not shown) [U.8]
19 | 100 to 1000 nM | Cn1nc(-c2ccccn2)c2c1NCCSC2c1ccc(-c2ccncc2C#N)cc1Cl (stereo not shown) [U.9]
20 | 100 to 1000 nM | Cn1nc(-c2ccccn2)c2c1NCCSC2c1ccc(-c2cnccc2C#N)cc1Cl (stereo not shown) [U.10]
21 | 1000 to 10000 nM | Cn1nc(-c2ccccn2)c2c1NCCSC2c1ccc(-c2cnc3nccnc3c2)cc1Cl (stereo not shown) [U.11]
22 | 100 to 1000 nM | Cn1nc(-c2ccccn2)c2c1NCCSC2c1ccc(-c2cncc(C(=O)N3CCOCC3)c2)cc1Cl (stereo not shown) [U.12]
23 | 100 to 1000 nM | Cn1nc(-c2ccccn2)c2c1NCCSC2c1ccc(-c2ccc(S(C)(=O)=O)nc2)cc1Cl (stereo not shown) [U.13]
24 | 1000 to 10000 nM | CC(=O)N1CCN(c2ccc(-c3ccc(C4SCCNc5c4c(-c4ccccn4)nn5C)c(Cl)c3)cn2)CC1 (stereo not shown) [U.14]
25 | 1000 to 10000 nM | COCCn1cc(-c2ccc(C3SCCNc4c3c(-c3ccccn3)nn4C)c(Cl)c2)cn1 (stereo not shown) [U.15]
26 | 100 to 1000 nM | Cn1nc(-c2ccccn2)c2c1NCCSC2c1ccc(-c2cnn(CCC#N)c2)cc1Cl (stereo not shown) [U.16]
27 | 100 to 1000 nM | Cn1nc(-c2ccccn2)c2c1NCCSC2c1ccc(-c2cnn(CC(N)=O)c2)cc1Cl (stereo not shown) [U.17]
28 | 100 to 1000 nM | Cn1nc(-c2ccccn2)c2c1NCCSC2c1ccc(-c2cnn(CCC(N)=O)c2)cc1Cl (stereo not shown) [U.18]
29 | 1000 to 10000 nM | Cn1nc(-c2ccccn2)c2c1NCCSC2c1ccc(-c2cnc(N3CCOCC3)nc2)cc1Cl (stereo not shown) [U.19]

The remaining lines, values behind:

Row | Compound | IC50
30 | CCn1nc(-c2ccccn2)c2c1NCCSC2c1ccc(C(=O)Nc2cccnc2C)cc1C (single isomer, unassigned) [M.61, 4-(1-ethyl-3-(pyridin-2-yl)-4,6,7,8-tetrahydro-1H-pyrazolo[3,4-e][1,4]thiazepin-4-yl)-3-methyl-N-(2-methylpyridin-3-yl)benzamide] | 100 to 1000 nM
31 | Cc1cc(Br)ccc1C1CCC(=O)Nc2c1c(C)nn2C (stereo not shown) [AA.2] | 1000 to 10000 nM
32 | CCn1nc(-c2ccccn2)c2c1NC(=O)CCC2c1ccc(Br)cc1C (stereo not shown) [AA.3] | < 100 nM
33 | Cc1ccc(Oc2ccc(C3SCCNc4c3c(C)nn4C)cc2)cc1 (stereo not shown) [D.75] | 1000 to 10000 nM
34 | Cc1ccc(Oc2ccc(C3SC(C)(C)CNc4c3c(C)nn4C)cc2)cc1 (stereo not shown) [D.78] | 100 to 1000 nM
35 | COc1cccc(C2SCCNc3c2c(C)nn3C)c1 (stereo not shown) [D.81] | 1000 to 10000 nM
36 | Cn1nc(-c2cccnc2)c2c1NCCSC2c1ccc(Cl)cc1Cl (stereo not shown) [D.86] | 1000 to 10000 nM
37 | Cc1ccc(-c2nn(C)c3c2C(c2ccc(Cl)cc2Cl)SCCN3)cc1 (stereo not shown) [D.87] | 100 to 1000 nM
38 | Cn1nc(-c2ccc(C(C)(C)C)cc2)c2c1NCCSC2c1ccc(Cl)cc1Cl (stereo not shown) [D.88] | 1000 to 10000 nM
39 | Cn1nc(-c2ccc(Cl)c(Cl)c2)c2c1NCCSC2c1ccc(Cl)cc1Cl (stereo not shown) [D.89] | 100 to 1000 nM
40 | Cn1nc(C(F)(F)F)c2c1NCCSC2c1ccc(Cl)cc1Cl (stereo not shown) [D.91] | 1000 to 10000 nM
41 | Cn1nc(-c2ccc(F)cc2F)c2c1NCCSC2c1ccc(Cl)cc1Cl (stereo not shown) [D.93] | 100 to 1000 nM
42 | Cn1nc(-c2ccc(OC(F)(F)F)cc2)c2c1NCCSC2c1ccc(Cl)cc1Cl (stereo not shown) [D.95] | 1000 to 10000 nM
43 | Cc1nn(C)c2c1C(c1ccccn1)SCCN2 (stereo not shown) [D.96] | > 10000 nM
44 | COc1ccc(C2SCCNc3c2c(C)nn3C)cc1 (stereo not shown) [D.97] | 1000 to 10000 nM
45 | COc1ccccc1C1SCCNc2c1c(C)nn2C (stereo not shown) [D.98] | > 10000 nM
46 | Cc1nn(C)c2c1C(c1cccnc1)SCCN2 (stereo not shown) [D.99] | > 10000 nM
47 | Cc1nn(C)c2c1C(c1ccc(Cl)cc1)SC(CCO)CN2 (stereo not shown) [D.100] | < 100 nM
48 | Cc1nn(C)c2c1C(c1cc[nH]n1)SCCN2 (stereo not shown) [D.102] | > 10000 nM
49 | COC(=O)c1ccc(C2SCCNc3c2c(-c2ccccn2)nn3C)cc1 (stereo not shown) [E.2, methyl 4-[1-methyl-3-(2-pyridyl)-4,6,7,8-tetrahydropyrazolo[3,4-e][1,4]thiazepin-4-yl]benzoate] | 1000 to 10000 nM
50 | COC(=O)c1ccc(C2SC(C)(C)CNc3c2c(C)nn3C)c(C)c1 (stereo not shown) [E.4, methyl 3-methyl-4-(1,3,6,6-tetramethyl-7,8-dihydro-4H-pyrazolo[3,4-e][1,4]thiazepin-4-yl)benzoate] | 100 to 1000 nM
51 | COC(=O)c1ccc(-c2nn(C)c3c2C(c2ccc(Cl)cc2Cl)SCCN3)nc1 (stereo not shown) [E.6, methyl 6-[4-(2,4-dichlorophenyl)-1-methyl-4,6,7,8-tetrahydropyrazolo[3,4-e][1,4]thiazepin-3-yl]pyridine-3-carboxylate] | 1000 to 10000 nM
52 | Cc1cc(C#N)ccc1C1SC(C)CNc2c1c(C)nn2C (stereo not shown) [G.11] | 1000 to 10000 nM
53 | Cc1ccc(C(=O)Nc2cccnc2C)cc1C1SC(C)(C)CNc2c1c(C1CC1)nn2C (stereo not shown) [H.2] | > 10000 nM

Test system: IL-6 in A549 cells stimulated with IL-1β
Test: A549 Cell Assay to Measure Inflammation Markers (inhibition of IL-1β-induced IL-6)
Type: cell-based
Conditions: A549 Cell Assay to Measure Inflammation Markers; intrinsic activity, Emax class ranges
Procedure: A549 Cell Assay to Measure Inflammation Markers
Further dilution (1:250) of compound was made into assay medium and 50 μL/well diluted drug or DMSO/media control was applied to cells. After a 1 h pre-incubation in a temperature, CO2, and humidity controlled incubator, set to 37° C., 50 μL/well of 4 ng/mL IL-1β diluted in assay media, was applied to cultures. Assay plates, with a final volume of 200 μL/well and final concentrations of 0.1% DMSO and 1 ng/mL IL-1β were returned to incubator for a […] incubation period. Next, plates were spun at 183 g (1000 rpm in Beckman/Coulter Allegra 6KR centrifuge) for 10 min. Cell-free supernatant (150 μL/well) was collected and IL-6 was measured by MSD kit, following protocol of manufacturer, and using MSD SECTOR Imager 6000 instrument. […] Results were represented as IC50 and Emax values.

Row | Compound | A549 Emax
54 | Cc1cc(Cl)ccc1C1SCCNc2c1c(-c1ccccn1)nn2C (single isomer, unassigned) [(4S)-4-(4-chloro-2-methyl-phenyl)-1-methyl-3-(2-pyridyl)-4,6] | B (a compound with Emax>60%)
55 | Cc1cc(Cl)ccc1C1SCC(C)Nc2c1c(-c1ccccn1)nn2C (single isomer, unassigned) [(4S,7S)-4-(4-chloro-2-methylphenyl)-1,7-dimethyl-3-(pyridin-] | D (a compound with Emax<50%)
